Measurements from US11717508B2, “Compounds, compositions, and methods for inhibiting bacterial growth” (priority 2016, dated 2023).

System: DosRST regulon
Type: cell-based
[1] = Rv1834, WT Mtb treated with HC102A compared to DMSO
[2] = Rv1996, WT Mtb treated with HC102A compared to DMSO
[3] = Rv1997 ctpF, WT Mtb treated with HC102A compared to DMSO
[4] = Rv2003c, WT Mtb treated with HC102A compared to DMSO
[5] = Rv2004c, WT Mtb treated with HC102A compared to DMSO
[6] = Rv2005c, WT Mtb treated with HC102A compared to DMSO
[7] = Rv2006 otsB, WT Mtb treated with HC102A compared to DMSO
[8] = Rv2007c fdxA, WT Mtb treated with HC102A compared to DMSO
[9] = Rv2027c, WT Mtb treated with HC102A compared to DMSO
[10] = Rv2028c, WT Mtb treated with HC102A compared to DMSO
[11] = Rv2030c, WT Mtb treated with HC102A compared to DMSO
[12] = Rv2032, WT Mtb treated with HC102A compared to DMSO
[13] = Rv2623, WT Mtb treated with HC102A compared to DMSO
[14] = Rv2624c, WT Mtb treated with HC102A compared to DMSO

SMILES: C[C@@H]1CC(C)(C)C[C@]2(C1)NC(=O)NC2=O (racemic) [HC102A, 7,7,9-trimethyl-1,3-diazaspiro[4.5]decane-2,4-dione]
- Counts per million (CPM) WT_HC102A2, gene MT1861 (Rv1813c, WT Mtb treated with HC102A, replicate 2): 147.2 CPM
- Fold change, gene MT1882 [1]: 0.4723
- log2 Fold change, gene MT1882 [1]: −1.082
- Counts per million (CPM) WT_HC102A1, gene MT1882 (Rv1834, WT Mtb treated with HC102A, replicate 1): 37.79 CPM
- Counts per million (CPM) WT_HC102A2, gene MT1882 (Rv1834, WT Mtb treated with HC102A, replicate 2): 31.49 CPM
- Fold change, gene MT2052 [2]: 0.01797
- log2 Fold change, gene MT2052 [2]: −5.798
- Counts per million (CPM) WT_HC102A1, gene MT2052 (Rv1996, WT Mtb treated with HC102A, replicate 1): 561.6 CPM
- Counts per million (CPM) WT_HC102A2, gene MT2052 (Rv1996, WT Mtb treated with HC102A, replicate 2): 277.3 CPM
- Fold change, gene MT2053 [3]: 0.04882
- log2 Fold change, gene MT2053 [3]: −4.356
- Counts per million (CPM) WT_HC102A1, gene MT2053 (Rv1997 ctpF, WT Mtb treated with HC102A, replicate 1): 105.1 CPM
- Counts per million (CPM) WT_HC102A2, gene MT2053 (Rv1997 ctpF, WT Mtb treated with HC102A, replicate 2): 117.4 CPM
- Fold change, gene MT2059 [4]: 0.2227
- log2 Fold change, gene MT2059 [4]: −2.167
- Counts per million (CPM) WT_HC102A1, gene MT2059 (Rv2003c, WT Mtb treated with HC102A, replicate 1): 203.6 CPM
- Counts per million (CPM) WT_HC102A2, gene MT2059 (Rv2003c, WT Mtb treated with HC102A, replicate 2): 97.15 CPM
- Fold change, gene MT2060 [5]: 0.2044
- log2 Fold change, gene MT2060 [5]: −2.291
- Counts per million (CPM) WT_HC102A1, gene MT2060 (Rv2004c, WT Mtb treated with HC102A, replicate 1): 661.2 CPM
- Counts per million (CPM) WT_HC102A2, gene MT2060 (Rv2004c, WT Mtb treated with HC102A, replicate 2): 393.9 CPM
- Fold change, gene MT2061 [6]: 0.1302
- log2 Fold change, gene MT2061 [6]: −2.942
- Counts per million (CPM) WT_HC102A1, gene MT2061 (Rv2005c, WT Mtb treated with HC102A, replicate 1): 308.4 CPM
- Counts per million (CPM) WT_HC102A2, gene MT2061 (Rv2005c, WT Mtb treated with HC102A, replicate 2): 262.8 CPM
- Fold change, gene MT2062 [7]: 0.2411
- log2 Fold change, gene MT2062 [7]: −2.052
- Counts per million (CPM) WT_HC102A1, gene MT2062 (Rv2006 otsB, WT Mtb treated with HC102A, replicate 1): 140.8 CPM
- Counts per million (CPM) WT_HC102A2, gene MT2062 (Rv2006 otsB, WT Mtb treated with HC102A, replicate 2): 181.1 CPM
- Fold change, gene MT2063 [8]: 0.2221
- log2 Fold change, gene MT2063 [8]: −2.171
- Counts per million (CPM) WT_HC102A1, gene MT2063 (Rv2007c fdxA, WT Mtb treated with HC102A, replicate 1): 1,505.73 CPM
- Counts per million (CPM) WT_HC102A2, gene MT2063 (Rv2007c fdxA, WT Mtb treated with HC102A, replicate 2): 2,151.57 CPM
- Fold change, gene MT2086 [9]: 0.3538
- log2 Fold change, gene MT2086 [9]: −1.499
- Counts per million (CPM) WT_HC102A1, gene MT2086 (Rv2027c, WT Mtb treated with HC102A, replicate 1): 90.79 CPM
- Counts per million (CPM) WT_HC102A2, gene MT2086 (Rv2027c, WT Mtb treated with HC102A, replicate 2): 84.31 CPM
- Fold change, gene MT2087 [10]: 0.08322
- log2 Fold change, gene MT2087 [10]: −3.587
- Counts per million (CPM) WT_HC102A1, gene MT2087 (Rv2028c, WT Mtb treated with HC102A, replicate 1): 62.1 CPM
- Counts per million (CPM) WT_HC102A2, gene MT2087 (Rv2028c, WT Mtb treated with HC102A, replicate 2): 56.17 CPM
- Fold change, gene MT2089 [11]: 0.06954
- log2 Fold change, gene MT2089 [11]: −3.846
- Counts per million (CPM) WT_HC102A1, gene MT2089 (Rv2030c, WT Mtb treated with HC102A, replicate 1): 1,125.52 CPM
- Counts per million (CPM) WT_HC102A2, gene MT2089 (Rv2030c, WT Mtb treated with HC102A, replicate 2): 784.7 CPM
- Fold change, gene MT2091 [12]: 0.06482
- log2 Fold change, gene MT2091 [12]: −3.947
- Counts per million (CPM) WT_HC102A1, gene MT2091 (Rv2032, WT Mtb treated with HC102A, replicate 1): 270.6 CPM
- Counts per million (CPM) WT_HC102A2, gene MT2091 (Rv2032, WT Mtb treated with HC102A, replicate 2): 336.8 CPM
- Fold change, gene MT2698 [13]: 0.02424
- log2 Fold change, gene MT2698 [13]: −5.366
- Counts per million (CPM) WT_HC102A1, gene MT2698 (Rv2623, WT Mtb treated with HC102A, replicate 1): 903.6 CPM
- Counts per million (CPM) WT_HC102A2, gene MT2698 (Rv2623, WT Mtb treated with HC102A, replicate 2): 611.4 CPM
- Fold change, gene MT2699 [14]: 0.052
- log2 Fold change, gene MT2699 [14]: −4.265
- Counts per million (CPM) WT_HC102A1, gene MT2699 (Rv2624c, WT Mtb treated with HC102A, replicate 1): 106.2 CPM
- Counts per million (CPM) WT_HC102A2, gene MT2699 (Rv2624c, WT Mtb treated with HC102A, replicate 2): 108.4 CPM
- Fold change, gene MT2700 (Rv2625c, WT Mtb treated with HC102A compared to DMSO): 0.02819
